Results: US11547681B2, “N-acylethanolamide derivatives and uses thereof” (ELIEM THERAPEUTICS, INC., priority 2016, dated 2023)

Legend:
[1] = Plasma stability (37° C., pH 7.4), rat; format: in vitro ADME, Sprague-Dawley rat; conditions: for half-life at 1 μM: male, Sprague-Dawley, rat, plasma, read-out: Half-life; for % Remaining of Initial (n = 1), 0 min / % Remaining of Initial (n = 1), 15 min / % Remaining of Initial (n = 1), 30 min / % Remaining of Initial (n = 1), 60 min / % Remaining of Initial (n = 1), 120 min / % Remaining of Initial: rat plasma; for % Remaining of Initial (n = 1), 0 min: pH 7.4, 0 min; for % Remaining of Initial (n = 1), 15 min: pH 7.4, 15 min; for % Remaining of Initial (n = 1), 30 min: pH 7.4, 30 min; for % Remaining of Initial (n = 1), 60 min: pH 7.4, 60 min; for % Remaining of Initial (n = 1), 120 min: pH 7.4, 120 min; for % Remaining of Initial: n = 1; for % Remaining of Initial (n = 1): Rat plasma
Experimental: (§1) Studies were carried out in mixed-gender human plasma (Lot #GLP530-5), male Sprague-Dawley rat (Lot #RAT297944, RAT313140), male CD-1 mouse (Lot #MSE237700), and male Beagle dog (Lot #BGL87670, BGL82614), collected on sodium heparin. Plasma was adjusted to pH 7.4 prior to initiating the experiments. DMSO stocks were first prepared for the test articles. Aliquots of the DMSO solutions were dosed into 700 μL of plasma, which had been pre-warmed to 37° C., at a final test article concentration of 1 μM. […] Samples were stored at 4° C. until the end of the experiment. After the final time point was sampled, the plate was mixed and then centrifuged at 3,000 rpm for 10 minutes. Calibration standards were prepared in matched matrix. […] Analytical conditions are outlined in Appendix 8-1.
as §1, with “#AS1650-2),” for “#GLP530-5),”, “#RAT297944),” for “#RAT297944, RAT313140),”, “CD-I” for “CD-1”, “#BGL91384),” for “#BGL87670, BGL82614),”, “10-1.” for “8-1.”
Studies were carried out in mixed-gender human plasma (Lot #AS1650-2), male Sprague-Dawley rat (Lot #RAT297944), male CD-1 mouse (Lot #MSE237700), and male Beagle dog (Lot #BGL91384), collected on sodium heparin. Plasma was adjusted to pH 7.4 prior to initiating the experiments. DMSO stocks were first prepared for test articles. […] Samples were stored at 4° C. until the end of experiment. After the final time point was sampled, the plate was mixed and then centrifuged at 3,000 rpm for 10 minutes. Calibration standards were prepared in matched matrix. […] Analytical conditions are outlined in Appendix 13-1.
Studies were carried out in mixed-gender human plasma (Lot #AS 1650-2), male Sprague-Dawley rat (Lot #RAT320835), male CD-1 mouse (Lot #MSE260693), and 6 male Beagle dog (Lot #BGL91384), on sodium heparin. Plasma was adjusted to pH 7.4 prior to initiating the experiments. DMSO stocks were first prepared for the test articles. Aliquots of the DMSO solutions were dosed into 700 μL of plasma, which had been pre-warmed to 37° C., at a final test article concentration of 1 μM. […] Samples were stored at 4° C. until the end of the experiment. After the final time point was sampled, the plate was mixed and then centrifuged at 3,000 rpm for 10 minutes. Calibration standards were prepared in matched matrix. […] Analytical conditions are outlined in Appendix 17-1.

[2] = in vitro; conditions: male, Beagle, dog; for Concentration (μM) of analyte PEA, 0 min / Concentration (μM) of analyte PEA, 10 min / Concentration (μM) of analyte PEA, 20 min / Concentration (μM) of analyte PEA, 30 min / Concentration (μM) of analyte PEA, 60 min / % Remaining of Initial (n = 1), 0 min / % Remaining of Initial (n = 1), 10 min / % Remaining of Initial (n = 1), 20 min / % Remaining of Initial (n = 1), 30 min / % Remaining of Initial (n = 1), 60 min / Measured concentration of PEA (analyte) / % Remaining of Initial / Concentration, analyte PEA / % Remaining of Initial (n = 1): 1 μM
Experimental: (§2) Reaction mixture, minus cofactors, was prepared as described below. Test article was added into the reaction mixture at a final concentration of 1 μM. […] An aliquot of the reaction mixture (without cofactor cocktail) was equilibrated in a shaking water bath at 37° C. for 3 minutes. The reaction was initiated by the addition of cofactor cocktail, and the mixture was incubated in a shaking water bath at 37° C. Aliquots (100 μL) were withdrawn at 0, 10, 20, 30, and 60 minutes. Test article samples were immediately combined with 300 μL of ice-cold acetonitrile containing 1% formic acid. Control samples were immediately combined with 400 μL of ice-cold 50/50 acetonitrile (ACN)/dH2O containing 0.1% formic acid and internal standard to terminate the reaction. Samples were then mixed and centrifuged to precipitate proteins. Calibration standards were prepared in matched matrix. Samples and standards were assayed by LC-MS/MS using electrospray ionization for both the dosed prodrug and the expected drug (PEA). Analytical conditions are outlined in Appendix 8-1. Test article concentration at each time point was compared to test article concentration at time 0 to determine the percent remaining at each time point. Halflives were calculated using GraphPad software, fitting to a single-phase exponential decay equation.
as §2, with “for 5” for “for 3”, “minutes. Reaction” for “minutes. The reaction”, “and” for “and the”, “both” for “both the”, “Appendix 10-1.” for “Appendix 8-1.”
Reaction mixture, minus cofactors, was prepared as described below. Test article was added into the reaction mixture at a final concentration of 1 μM. […] An aliquot of the reaction mixture (without cofactor cocktail) was equilibrated in a shaking water bath at 37° C. for 3 minutes. Reaction was initiated by the addition of cofactor cocktail, and the mixture was incubated in a shaking water bath at 37° C. Aliquots (100 μL) were withdrawn at 0, 10, 20, 30, and 60 minutes. Test article samples were immediately combined with 300 μL of ice-cold acetonitrile containing 1% formic acid. Control samples were immediately combined with 400 μL of ice-cold 50/50 acetonitrile (ACN)/dH2O containing 0.1% formic acid and internal standard to terminate the reaction. Samples were then mixed and centrifuged to precipitate proteins. Calibration standards were prepared in matched matrix. Samples and standards were assayed by LC-MS/MS using electrospray ionization for both dosed prodrug and expected drug (PEA). Analytical conditions are outlined in Appendix 13-1. Test article concentration at each time point was compared to test article concentration at time 0 to determine the percent remaining at each time point. Halflives were calculated using GraphPad software, fitting to a single-phase exponential decay equation.

[3] = pH 7.4, rat plasma, test article 1 μM, 37° C., pH 7.4

| SMILES | half-life at 1 μM [1, 3] | % Remaining of Initial (n = 1), 0 min ([1]; test article 1 μM, 37° C.) | % Remaining of Initial (n = 1), 15 min ([1]; test article 1 μM, 37° C.) | % Remaining of Initial (n = 1), 30 min ([1]; test article 1 μM, 37° C.) | % Remaining of Initial (n = 1), 60 min ([1]; test article 1 μM, 37° C.) | % Remaining of Initial (n = 1), 120 min ([1]; test article 1 μM, 37° C.) | Concentration (μM) of analyte PEA, 0 min ([2]; 0 min) | Concentration (μM) of analyte PEA, 10 min ([2]; 10 min) | Concentration (μM) of analyte PEA, 20 min ([2]; 20 min) | Concentration (μM) of analyte PEA, 30 min ([2]; 30 min) | Concentration (μM) of analyte PEA, 60 min ([2]; 60 min) | % Remaining of Initial (n = 1), 0 min ([2]; s9, 0 h) | % Remaining of Initial (n = 1), 10 min ([2]; s9, 10 min) | % Remaining of Initial (n = 1), 20 min ([2]; s9, 20 min) | % Remaining of Initial (n = 1), 30 min ([2]; s9, 0.5 h) | % Remaining of Initial (n = 1), 60 min ([2]; s9, 1 h) | microsomal CLint at 1 μM ([2]; s9, CLint (mL/min/mg protein)) | half-life at 1 μM ([2]; s9, Half-life (min)) | further results |
| --- | --- | --- | --- | --- | --- | --- | --- | --- | --- | --- | --- | --- | --- | --- | --- | --- | --- | --- | --- |
| CCCCCCCCCCCCCCCC(=O)NCCOC(=O)CCC(=O)OC[C@H]1O[C@@](CO)(O[C@H]2O[C@H](CO)[C@@H](O)[C@H](O)[C@H]2O)[C@@H](O)[C@@H]1O [Compound I-7] | < 1 min | 100% | <1.0% | <1.0% | <1.0% | <1.0% | 0.38 µM | 0.36 µM | 0.55 µM | 0.51 µM | 0.50 µM | 100% | 1.1% | <1.0% | <1.0% | <1.0% | 452 µL/min/mg | 1.5 min |  |
| CCCCCCCCCCCCCCCC(=O)NCCOC(=O)CCC(=O)OC(CO)CO [Compound I-8] |  |  |  |  |  |  |  |  |  |  |  |  |  |  |  |  |  |  | half-life at 1 μM ([1]; pH 7.4, rat plasma): < 1 min; % Remaining of Initial ([1]; 0 min, 1 μM): 100%; % Remaining of Initial ([1]; 15 min, 1 μM): <1.0%; % Remaining of Initial ([1]; 30 min, 1 μM): <1.0%; % Remaining of Initial ([1]; 60 min, 1 μM): <1.0%; % Remaining of Initial ([1]; 120 min, 1 μM): <1.0%; Measured concentration of PEA (analyte) ([2]; 0 min): 0.33 µM; Measured concentration of PEA (analyte) ([2]; 10 min): 0.71 µM; Measured concentration of PEA (analyte) ([2]; 20 min): 0.81 µM; Measured concentration of PEA (analyte) ([2]; 30 min): 0.67 µM; Measured concentration of PEA (analyte) ([2]; 60 min): 0.81 µM; % Remaining of Initial ([2]; s9, 0 h): 100%; % Remaining of Initial ([2]; s9, 10 min): <1.0%; % Remaining of Initial ([2]; s9, 20 min): <1.0%; % Remaining of Initial ([2]; s9, 0.5 h): <1.0%; % Remaining of Initial ([2]; s9, 1 h): <1.0%; microsomal CLint at 1 μM ([2]; s9, CLint): > 69.3 µL/min/mg; half-life at 1 μM ([2]; s9, Half-life): < 10 min |
| CCCCC/C=C\C/C=C\CCCCCCCC(=O)OCC(COC(=O)CCC(=O)OCCNC(=O)CCCCCCCCCCCCCCC)OC(=O)CCCCCCC/C=C\C/C=C\CCCCC (centres unmarked) [Compound I-13] |  |  |  |  |  |  |  |  |  |  |  |  |  |  |  |  |  |  | % Remaining of Initial (n = 1) ([1]; 0 min, 1 μM): 100%; % Remaining of Initial (n = 1) ([1]; 15 min, 1 μM): 69%; % Remaining of Initial (n = 1) ([1]; 30 min, 1 μM): 76%; % Remaining of Initial (n = 1) ([1]; 60 min, 1 μM): 36%; % Remaining of Initial (n = 1) ([1]; 120 min, 1 μM): 5.1%; half-life at 1 μM ([1]; pH 7.4, Rat plasma, 1 μM): 42 min; Concentration, analyte PEA ([2]; 0 min): 58 nM; Concentration, analyte PEA ([2]; 10 min): 95 nM; Concentration, analyte PEA ([2]; 20 min): 100 nM; Concentration, analyte PEA ([2]; 30 min): 89 nM; Concentration, analyte PEA ([2]; 60 min): 170 nM; % Remaining of Initial (n = 1) ([2]; s9, 0 h): 100%; % Remaining of Initial (n = 1) ([2]; s9, 10 min): 67%; % Remaining of Initial (n = 1) ([2]; s9, 20 min): 63%; % Remaining of Initial (n = 1) ([2]; s9, 0.5 h): 46%; % Remaining of Initial (n = 1) ([2]; s9, 1 h): 49% |

The next lines start with results.

| half-life at 1 μM [1, 3] | % Remaining of Initial (n = 1), 0 min ([1]; test article 1 μM, 37° C.) | % Remaining of Initial (n = 1), 15 min ([1]; test article 1 μM, 37° C.) | % Remaining of Initial (n = 1), 30 min ([1]; test article 1 μM, 37° C.) | % Remaining of Initial (n = 1), 60 min ([1]; test article 1 μM, 37° C.) | % Remaining of Initial (n = 1), 120 min ([1]; test article 1 μM, 37° C.) | Concentration (μM) of analyte PEA, 0 min ([2]; 0 min) | Concentration (μM) of analyte PEA, 10 min ([2]; 10 min) | Concentration (μM) of analyte PEA, 20 min ([2]; 20 min) | Concentration (μM) of analyte PEA, 30 min ([2]; 30 min) | Concentration (μM) of analyte PEA, 60 min ([2]; 60 min) | % Remaining of Initial (n = 1), 0 min ([2]; s9, 0 h) | % Remaining of Initial (n = 1), 10 min ([2]; s9, 10 min) | % Remaining of Initial (n = 1), 20 min ([2]; s9, 20 min) | % Remaining of Initial (n = 1), 30 min ([2]; s9, 0.5 h) | % Remaining of Initial (n = 1), 60 min ([2]; s9, 1 h) | microsomal CLint at 1 μM ([2]; s9, CLint (mL/min/mg protein)) | half-life at 1 μM ([2]; s9, Half-life (min)) | SMILES | further results |
| --- | --- | --- | --- | --- | --- | --- | --- | --- | --- | --- | --- | --- | --- | --- | --- | --- | --- | --- | --- |
| 2.8 min | 100% | 2.5% | <1.0% | <1.0% | <1.0% | 0.26 µM | 0.48 µM | 0.47 µM | 0.46 µM | 0.45 µM | 100% | <1.0% | <1.0% | <1.0% | <1.0% | > 691 µL/min/mg | < 1 min | CCCCCCCCCCCCCCCC(=O)NCCOC(=O)CCC(=O)OCC(O)CO (centres unmarked) [Compound I-9] |  |
| 5.6 min | 100% | 9.0% | 23% | <1.0% | <1.0% | 0.032 µM | 0.23 µM | 0.38 µM | 0.74 µM | 0.88 µM | 100% | 1.8% | <1.0% | <1.0% | <1.0% |  |  | CCCCCCCCCCCCCCCC(=O)NCCOC(=O)CCC(=O)OCC(COC(=O)CCC)OC(=O)CCC (centres unmarked) [Compound I-11] |  |
